# Reference: patent publication US10669235B2, “Indole derivatives and their use as protein kinase inhibitors” (RESPIVERT LIMITED, priority 2016, dated 2020)
# Where a name gives a salt, the structure may show the parent alone. Read-outs that look alike come from different tables or passages of the source.
# Experiments:
# [1] = Pharmacokinetic measurements in rats (i.v., i.t., oral); assay type: in vivo; conditions: rat; for concentration at 0.1 h / concentration at 1.5 h / concentration at 6 h / concentration at 24 h: lung; for concentration at 0.1 h: read-out: lung concentration (nM) at time 0.1 h; for concentration at 1.5 h: read-out: lung concentration (nM) at time 1.5 h; for concentration at 6 h: read-out: lung concentration (nM) at time 6 h; for concentration at 24 h: read-out: lung concentration (nM) at time 24 h; for Kp at 0.1 h / Kp at 1.5 h / Kp at 6 h / Kp at 24 h: lung/plasma
# PDGFRβ [2] = target: T1, PDGFRβ (Homo sapiens (Human), UniProt P09619); test: PDGF-BB induced phosphorylation of PDGFRβ in fibroblasts (MRC5, HTRF); assay type: cell-based; conditions: MRC5 cells, PDGFBB stimulation; read-out: PDGFBB-induced PDGFRβ phosphorylation in MRC5 cells (IC50)
# T1 sequence (P09619 33-1106): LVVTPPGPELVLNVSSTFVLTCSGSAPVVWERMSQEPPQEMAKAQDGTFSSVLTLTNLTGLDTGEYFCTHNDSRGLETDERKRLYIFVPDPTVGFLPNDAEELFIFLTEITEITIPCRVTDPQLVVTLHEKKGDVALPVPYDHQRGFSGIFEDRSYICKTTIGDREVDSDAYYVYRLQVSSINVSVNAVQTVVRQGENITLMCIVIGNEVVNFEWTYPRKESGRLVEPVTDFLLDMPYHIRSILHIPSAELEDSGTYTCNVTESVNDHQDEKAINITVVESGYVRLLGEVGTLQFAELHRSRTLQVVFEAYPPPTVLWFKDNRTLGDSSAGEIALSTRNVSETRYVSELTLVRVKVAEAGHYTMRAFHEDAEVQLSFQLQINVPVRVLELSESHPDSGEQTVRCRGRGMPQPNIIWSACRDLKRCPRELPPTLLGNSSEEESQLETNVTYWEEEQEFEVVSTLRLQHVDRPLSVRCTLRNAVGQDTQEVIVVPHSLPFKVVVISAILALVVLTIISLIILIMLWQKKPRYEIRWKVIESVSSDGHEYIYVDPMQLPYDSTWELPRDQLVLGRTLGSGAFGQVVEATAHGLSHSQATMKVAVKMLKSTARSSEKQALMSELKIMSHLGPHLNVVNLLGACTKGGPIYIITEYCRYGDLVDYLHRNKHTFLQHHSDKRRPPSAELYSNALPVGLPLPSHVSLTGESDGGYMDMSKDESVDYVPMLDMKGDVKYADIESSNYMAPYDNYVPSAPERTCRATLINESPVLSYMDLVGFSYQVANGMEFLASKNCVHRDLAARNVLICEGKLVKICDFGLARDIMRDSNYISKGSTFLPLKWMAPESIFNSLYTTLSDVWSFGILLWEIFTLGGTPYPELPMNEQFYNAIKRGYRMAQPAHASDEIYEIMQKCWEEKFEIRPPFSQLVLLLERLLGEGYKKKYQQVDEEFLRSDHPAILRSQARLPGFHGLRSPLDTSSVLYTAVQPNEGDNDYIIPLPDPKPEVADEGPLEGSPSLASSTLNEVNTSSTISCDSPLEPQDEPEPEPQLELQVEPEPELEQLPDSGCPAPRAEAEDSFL
# PAMPA permeability assay = assay type: in vitro ADME; conditions: pH 7, PAMPA; for Papp at 5 h, 10 µM: pH 7, 10 μM
# MRC5 cells = test: Cell viability assay in MRC5 cells (MTT)
# PDGFRβ [3] = target: T1, PDGFRβ; test: PDGFRβ enzyme inhibition (ADP-Glo assay); assay type: biochemical; conditions: mean, n = 2 (nintedanib n = 34)
# [4] = male, CD, other: intra-tracheal
# [5] = male, CD, iv, read-out: lung/plasma ratio at time 0.1 h
# [6] = male, CD, iv, read-out: lung/plasma ratio at time 1.5 h
# [7] = male, CD, iv, read-out: lung/plasma ratio at time 6 h
# [8] = male, CD, iv, read-out: lung/plasma ratio at time 24 h
# [9] = male, CD, other: intra-tracheal, read-out: lung/plasma conc ratio at time 0.1 h
# [10] = i.t. dose 0.1 (nintedanib 0.42)
# [11] = i.t. dose 0.1 (nintedanib 0.42), 1.5 h
# [12] = i.t. dose 0.1 (nintedanib 0.42), 6 h
# [13] = i.t. dose 0.1 (nintedanib 0.42), 24 h
# [14] = i.v. dose 0.1 (nintedanib 0.42)
# [15] = i.v. dose 0.1 (nintedanib 0.42), 1.5 h
# [16] = i.v. dose 0.1 (nintedanib 0.42), 6 h
# [17] = i.v. dose 0.1 (nintedanib 0.42), 24 h
smiles,measurement,setting,value
"COC(=O)c1cc2c(cc1C)/C(=C(/Nc1ccc(C(=O)NCCN3CCNC(=O)C3)cc1)c1ccccc1)C(=O)N2 [Example 9, (Z)-Methyl 5-methyl-2-oxo-3-(((4-((2-(3-oxopiperazin-1-yl)ethyl)carbamoyl)phenyl)amino) (phenyl)methylene)indoline-6-carboxylate]",concentration at 0.1 h,"[1]; male, CD, iv",494 nM
same,concentration at 1.5 h,"[1]; male, CD, iv",174 nM
same,concentration at 6 h,"[1]; male, CD, iv",235 nM
same,concentration at 24 h,"[1]; male, CD, iv",502 nM
same,concentration at 0.1 h,[1]; [4],5700 nM
same,concentration at 1.5 h,[1]; [4],8810 nM
same,concentration at 6 h,[1]; [4],10500 nM
same,concentration at 24 h,[1]; [4],10500 nM
same,Kp at 0.1 h,[1]; [5],17
same,Kp at 1.5 h,[1]; [6],55
same,Kp at 6 h,[1]; [7],> 326
same,Kp at 24 h,[1]; [8],> 697
same,Kp at 0.1 h,[1]; [9],> 7890
same,MRT,"[1]; male, CD, plasma, iv",1.1 h
same,clearance,"[1]; male, CD, plasma, iv",90 mL/min/kg
same,half-life,"[1]; male, CD, plasma, iv",1.1 h
same,Vd,"[1]; male, CD, plasma, iv, read-out: Vss",7 L/kg
same,Lung conc i.t./i.v. Ratio at time 0.1 h,[1],12
same,Lung conc i.t./i.v. Ratio at time 1.5 h,[1]; 1.5 h,51
same,Lung conc i.t./i.v. Ratio at time 6 h,[1]; 6 h,45
same,Lung conc i.t./i.v. Ratio at time 24 h,[1]; 24 h,21
same,i.t. BAV (%),[1]; [10],<40%
same,BAL % administered dose at time 0.1 h,[1]; [10],13.7%
same,BAL % administered dose at time 1.5 h,[1]; [11],5.2%
same,lung/plasma conc ratio at time 1.5 h,[1]; [11],>12197
same,BAL % administered dose at time 6 h,[1]; [12],2.3%
same,lung/plasma conc ratio at time 6 h,[1]; [12],>14485
same,BAL % administered dose at time 24 h,[1]; [13],0.5%
same,lung/plasma conc ratio at time 24 h,[1]; [13],>14483
same,BAL % administered dose at time 0.1 h,[1]; [14],BQL
same,BAL % administered dose at time 1.5 h,[1]; [15],BQL
same,BAL % administered dose at time 6 h,[1]; [16],BQL
same,BAL % administered dose at time 24 h,[1]; [17],BQL
same,Oral BAV (%),[1]; oral dose 3 mg/kg,<2%
same,IC50,PDGFRβ [2],14.2 nM
same,"recovery at 5 hr, 10 μM",PAMPA permeability assay,72.7%
same,"Papp at 5 h, 10 µM",PAMPA permeability assay,0.0146 ×10⁻⁶ cm/s
same,Cell viability at 100 nM (%),MRC5 cells,102%
same,Cell viability at 300 nM (%),MRC5 cells,103.6%
same,Cell viability at 1000 nM (%),MRC5 cells,97.5%
same,Ki,PDGFRβ [3],7.89 nM
"COC(=O)c1cc2c(cc1C)/C(=C(/Nc1ccc(C(=O)NCC3CCN(C)CC3)cc1)c1ccccc1)C(=O)N2 [Example 3, (Z)-Methyl 5-methyl-3-(((4-(((1-methylpiperidin-4-yl)methyl)carbamoyl)phenyl)amino)(phenyl)methylene)-2-oxoindoline-6-carboxylate, formate]",concentration at 0.1 h,"[1]; male, CD, iv",761 nM
same,concentration at 1.5 h,"[1]; male, CD, iv",700 nM
same,concentration at 6 h,"[1]; male, CD, iv",321 nM
same,concentration at 24 h,"[1]; male, CD, iv",135 nM
same,concentration at 0.1 h,[1]; [4],2600 nM
same,concentration at 1.5 h,[1]; [4],4990 nM
same,concentration at 6 h,[1]; [4],4680 nM
same,concentration at 24 h,[1]; [4],1860 nM
same,Kp at 0.1 h,[1]; [5],38
same,Kp at 1.5 h,[1]; [6],154
same,Kp at 6 h,[1]; [7],120
same,Kp at 24 h,[1]; [8],> 72
same,Kp at 0.1 h,[1]; [9],100
same,Kp at 1.5 h,"[1]; male, CD, other: intra-tracheal, read-out: lung/plasma conc ratio at time 1.5 h",1910
same,Kp at 6 h,"[1]; male, CD, other: intra-tracheal, read-out: lung/plasma conc ratio at time 6 h",2150
same,Kp at 24 h,"[1]; male, CD, other: intra-tracheal, read-out: lung/plasma conc ratio at time 24 h",> 1000
same,Lung conc i.t./i.v. Ratio at time 0.1 h,[1],3
same,Lung conc i.t./i.v. Ratio at time 1.5 h,[1]; 1.5 h,7
same,Lung conc i.t./i.v. Ratio at time 6 h,[1]; 6 h,15
same,Lung conc i.t./i.v. Ratio at time 24 h,[1]; 24 h,14
same,BAL % administered dose at time 0.1 h,[1]; [10],14%
same,BAL % administered dose at time 1.5 h,[1]; [11],1.2%
same,BAL % administered dose at time 6 h,[1]; [12],0.7%
same,BAL % administered dose at time 24 h,[1]; [13],0.3%
same,BAL % administered dose at time 0.1 h,[1]; [14],0.1%
same,BAL % administered dose at time 1.5 h,[1]; [15],0.1%
same,BAL % administered dose at time 6 h,[1]; [16],0.03%
same,BAL % administered dose at time 24 h,[1]; [17],0.02%
same,IC50,PDGFRβ [2],12.7 nM
same,"recovery at 5 hr, 10 μM",PAMPA permeability assay,92.4%
same,"Papp at 5 h, 10 µM",PAMPA permeability assay,0.00775 ×10⁻⁶ cm/s
same,Cell viability at 100 nM (%),MRC5 cells,88%
same,Cell viability at 300 nM (%),MRC5 cells,86.1%
same,Cell viability at 1000 nM (%),MRC5 cells,79.5%
same,Ki,PDGFRβ [3],6.86 nM
